The record followed here is patent publication US20150352108A1, “AMINO-PYRIMIDINE COMPOUNDS AS INHIBITORS OF TBK1 AND/OR IKK EPSILON” (Alzheimer's Institute of America, priority 2009, published 2015).

pIC50: −log10 of the molar value. Where two headings read alike, the source gives them in different places.

The target in test [1] is T1, IKKε (Homo sapiens, UniProt Q14164).
T1 construct: His-tag; made in house; host or cells: Sf9 insect cells
T1 sequence (Q14164 1-716): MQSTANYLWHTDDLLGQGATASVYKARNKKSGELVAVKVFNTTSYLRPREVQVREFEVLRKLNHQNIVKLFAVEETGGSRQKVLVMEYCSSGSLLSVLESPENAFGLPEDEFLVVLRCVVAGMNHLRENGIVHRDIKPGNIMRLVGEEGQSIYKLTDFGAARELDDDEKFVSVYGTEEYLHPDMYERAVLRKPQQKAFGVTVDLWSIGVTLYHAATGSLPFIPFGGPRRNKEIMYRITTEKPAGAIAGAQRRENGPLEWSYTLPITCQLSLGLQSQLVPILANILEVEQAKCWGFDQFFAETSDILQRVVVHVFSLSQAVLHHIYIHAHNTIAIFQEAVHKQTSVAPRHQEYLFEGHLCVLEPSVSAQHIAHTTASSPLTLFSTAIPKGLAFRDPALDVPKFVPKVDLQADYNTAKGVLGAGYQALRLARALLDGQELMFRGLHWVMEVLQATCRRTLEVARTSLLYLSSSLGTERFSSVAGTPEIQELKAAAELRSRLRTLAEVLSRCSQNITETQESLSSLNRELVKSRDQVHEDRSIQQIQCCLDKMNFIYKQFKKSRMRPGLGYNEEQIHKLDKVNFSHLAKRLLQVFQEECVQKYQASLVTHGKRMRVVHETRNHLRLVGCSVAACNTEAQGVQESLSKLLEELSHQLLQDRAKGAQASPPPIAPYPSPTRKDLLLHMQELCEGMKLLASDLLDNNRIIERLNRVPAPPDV
The test is described as follows: In-vitro IKKε kinase assay ([γ33]ATP filter-plate). The class given is biochemical. The method in brief:
(§1)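 His-tagged IKKε and TBK1 from Sf9 cells were assayed with myelin basic protein or casein and [γ33]ATP at 2×Km ATP (32 μM for IKKε, 60 μM for TBK1). Enzyme was 0.1 or 0.015 μg/ml for IKKε and 0.1 or 0.02 μg/ml for TBK1 (normal/sensitized). Reactions ran 30-45 min, were filter-captured, scintillation-counted, and normalized to DMSO after background subtraction.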

In test [2] the target is T2, TBK1 (Homo sapiens, UniProt Q9UHD2).
T2 construct: His-tag; made in house; host or cells: Sf9 insect cells
T2 sequence (Q9UHD2 1-729): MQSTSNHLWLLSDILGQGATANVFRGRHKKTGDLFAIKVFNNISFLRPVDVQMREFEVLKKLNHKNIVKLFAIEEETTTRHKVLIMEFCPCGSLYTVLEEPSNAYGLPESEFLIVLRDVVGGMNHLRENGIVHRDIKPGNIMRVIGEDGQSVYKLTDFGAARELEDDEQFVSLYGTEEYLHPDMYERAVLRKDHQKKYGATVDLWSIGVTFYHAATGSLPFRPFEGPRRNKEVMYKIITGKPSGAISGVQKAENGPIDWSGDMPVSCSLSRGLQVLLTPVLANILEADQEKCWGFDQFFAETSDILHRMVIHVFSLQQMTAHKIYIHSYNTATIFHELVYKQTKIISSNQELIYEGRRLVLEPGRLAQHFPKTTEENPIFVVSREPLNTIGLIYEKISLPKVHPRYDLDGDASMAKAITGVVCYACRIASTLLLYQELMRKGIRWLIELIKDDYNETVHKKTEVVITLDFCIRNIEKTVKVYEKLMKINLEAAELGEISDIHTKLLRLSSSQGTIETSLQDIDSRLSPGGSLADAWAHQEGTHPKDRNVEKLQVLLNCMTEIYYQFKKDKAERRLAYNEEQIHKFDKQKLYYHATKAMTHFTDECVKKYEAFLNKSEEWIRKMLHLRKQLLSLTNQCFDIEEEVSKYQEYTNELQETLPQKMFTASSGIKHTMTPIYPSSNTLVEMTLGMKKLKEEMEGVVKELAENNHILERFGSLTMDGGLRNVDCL
The test is described as follows: In-vitro TBK1 kinase assay ([γ33]ATP filter-plate). The class given is biochemical. The method in brief: as §1

[3] abbreviates: text bins, read-out: IC50 for inhibition of the kinase activity of IKKε.
Where [4] appears, read: text bins, read-out: IC50 for inhibition of the kinase activity of TBK1.

On to `COc1cc(Nc2nccc(-c3ccc(OC4CCOCC4)c(C#N)c3)n2)ccc1OCCOCCNS(=O)(=O)N(C)C` [Example 26, N′-(2-{2-[4-({4-[3-cyano-4-(tetrahydro-2H-pyran-4-yloxy)phenyl]pyrimidin-2-yl}amino)-2-methoxyphenoxy]ethoxy}ethyl)-N,N-dimethylsulfuric diamide], for which the negative logarithm of the IC50 (pIC50) in test [1] (setting [3]) is above 8.30; in test [2] (setting [4]), above 8.00.
On the same counts, the results for `COc1cc(Nc2nccc(-c3ccc(OC4CCN(S(C)(=O)=O)CC4)c(C#N)c3)n2)ccc1N1CCOCC1` [Example 79, 5-(2-{[3-methoxy-4-(morpholin-4-yl)phenyl]amino}pyrimidin-4-yl)-2-{[1-(methylsulfonyl)piperidin-4-yl]oxy}benzonitrile] are 7.30 to 8.30 and 7.00 to 8.00.
In the same order, the values of `CC(C)C(=O)Nc1ccc(-c2ccnc(Nc3cccc(CCN4CCOCC4)c3)n2)cc1C#N` [compound 466, N-{2-cyano-4-[2-({3-[2-(morpholin-4-yl)ethyl]phenyl}amino)pyrimidin-4-yl]phenyl}-2-methylpropanamide] are 7.30 to 8.30 and above 8.00.
For the compound `COc1cc(Nc2nc(-c3ccc(OC4CCOCC4)c(C#N)c3)c3nc[nH]c3n2)ccc1N1CCOCC1` [compound 633, 5-(2-{[3-Methoxy-4-(morpholin-4-yl)phenyl]amino}-3H-purin-6-yl)-2-(tetrahydro-2H-pyran-4-yloxy)benzonitrile], the values for the pIC50 in test [1] (setting [3]) and in test [2] (setting [4]) were 7.30 to 8.30 and above 8.00, respectively.
On the same counts, the results for `CS(=O)(=O)N1CCC(Oc2ccc(-c3ccnc(Nc4ccc(N5CCOCC5)cc4)n3)cc2C#N)C1` (stereo not drawn) [Example 257, 2-{[1-(methylsulfonyl)pyrreolidin-3-yl]oxy}-5-(2-{[4-(morpholin-4-yl)phenyl]amino}pyrimidin-4-yl)benzonitrile] are 7.30 to 8.30 and 7.00 to 8.00.
On the same counts, the results for `CC1(C)CC1C(=O)Nc1ccc(-c2ccnc(Nc3ccc(N4CCOCC4)cc3)n2)cc1C#N` (stereo not drawn) [compound 554, N-[2-Cyano-4-(2-{[4-(morpholin-4-yl)phenyl]amino}pyrimidin-4-yl)phenyl]-2,2-dimethylcyclopropane-carboxamide] are 7.30 to 8.30 and above 8.00.
With `COc1ccc(-c2ccnc(Nc3ccc(NC(C)=O)cc3)n2)cc1C#N` [compound 361, N-(4-{[4-(3-Cyano-4-methoxyphenyl)pyrimidin-2-yl]amino}phenyl) acetamide], the negative-log IC50 (pIC50) in test [1] (setting [3]) is 7.30 to 8.30; in test [2] (setting [4]), 7.00 to 8.00.
In the same order, the values of `CC(=O)Nc1ccc(-c2ccnc(Nc3ccc(N4CCOCC4)cc3)n2)cc1C#N` [Example 117, N-[2-Cyano-4-(2-{[4-(morpholin-4-yl)phenyl]amino}pyrimidin-4-yl)phenyl]acetamide] are 7.30 to 8.30 and 7.00 to 8.00.
In the same order, the values of `N#Cc1cc(-c2ccnc(Nc3ccc(N4CCOCC4)cc3)n2)ccc1OC1CNC1` [Example 143, 2-(azetidin-3-yloxy)-5-(2-{[4-(morpholin-4-yl)phenyl]amino}pyrimidin-4-yl)benzonitrile] are 7.30 to 8.30 and above 8.00.
In the same order, the values of `N#Cc1cc(-c2ccnc(Nc3ccc(N4CCOCC4)cc3)n2)ccc1OCC1CCOCC1` [Example 158, 5-(2-{[4-(morpholin-4-yl)phenyl]amino}pyrimidin-4-yl)-2-(tetrahydro-2H-pyran-4-ylmethoxy) benzonitrile] are above 8.30 and above 8.00.
Regarding `N#Cc1cc(-c2ccnc(Nc3ccc(CNC(=O)c4cnc(N)s4)cc3)n2)ccc1OC1CCOCC1` [compound 490, 2-amino-N-[4-({4-[3-cyano-4-(tetrahydro-2H-pyran-4-yloxy)phenyl]pyrimidin-2-yl}amino)benzyl]-1,3-thiazole-5-carboxamide], the negative-log IC50 (pIC50) in test [1] (Table 3, read-out: IKKε IC50) was 8.85; in test [1] (setting [3]) it was above 8.30; in test [2] (Table 3, read-out: TBK1 IC50), 9.52; in test [2] (setting [4]) it was above 8.00.

What is called pIC50 is the IC50 on a negative log10 scale, so that one unit is a factor of ten.
